40 molecules from patent US20030232860A1, “Medicine comprising dicyanopyridine derivative” (priority 2000, published 2003) can be followed below.

The term melting point denotes the temperature of the solid-liquid transition.

Where a name gives a salt, the structure may show the parent alone. Where only a bound is given, the exact number is not on record here.

Take `COc1nc(N)c(C#N)c(C2CCCNC2)c1C#N` (stereo not shown): the melting point was 176 to 178 °C.
In the case of `CSc1nc(N)c(C#N)c(C)c1C#N` [Example 75], the melting point is 246 to 247 °C.
With `COc1nc(OCCO)c(C#N)c(-c2ccccc2)c1C#N` [Example 33, 2-(2-hydroxyethoxy)-6-methoxy-4-phenylpyridine-3,5-dicarbonitrile] the figure was 170 to 172 °C; with `COc1nc(N)c(C#N)c(-c2cc(F)ccc2F)c1C#N` [Example 126, 2-amino-4-(2,5-difluorophenyl)-6-methoxypyridine-3,5-dicarbonitrile], 201 to 202 °C.
In the case of `CS(=O)(=O)c1nc(N)c(C#N)c(-c2cccs2)c1C#N` [Example 44, 2-amino-6-methanesulfonyl-4-thiophen-2-ylpyridine-3,5-dicarbonitrile] it was 233 to 235 °C.
`COc1nc(N)c(C#N)c(-c2cc[nH]c2)c1C#N` [Example 66, 2-amino-6-methoxy-4-(1H-pyrrol-3-yl)pyridine-3,5-dicarbonitrile]: the melting point lay in the range of 235 to 237 °C.
In the case of `COc1nc(NC(=O)C(C)C)c(C#N)c(-c2ccccc2F)c1C#N` [Example 405, N-[3,5-dicyano-4-(2-fluorophenyl)-6-methoxypyridin-2-yl]isobutyramide], the melting point lay within 193 to 194 °C.
In turn, `COc1nc(NC(=O)Cc2ccccc2)c(C#N)c(-c2ccccc2F)c1C#N` [Example 416, N-[3,5-dicyano-4-(2-fluorophenyl)-6-methoxypyridin-2-yl]-2-phenylacetamide] had a melting point of 206 to 208 °C.
With `COc1nc(SC)c(C#N)c(-c2ccccc2)c1C#N` [Example 371] the figure was 168 to 170 °C; with `N#Cc1c(N)nc(Br)c(C#N)c1-c1ccccc1` [Example 178], above 300 °C.
Molecule `COCC(=O)Nc1nc(OC)c(C#N)c(-c2c(F)cccc2F)c1C#N` [Example 62, N-[3,5-dicyano-4-(2,6-difluorophenyl)-6-methoxypyridin-2-yl]-2-methoxyacetamide] showed a melting point of 181 to 182 °C.
In the case of `CCOc1nc(N)c(C#N)c(-c2ccccc2)c1C#N` [Example 179] it was 233 to 234 °C.
In turn, `COc1nc(NC(=O)COC(C)=O)c(C#N)c(-c2ccccc2F)c1C#N` [Example 397, [3,5-dicyano-4-(2-fluorophenyl)-6-methoxypyridin-2-ylcarbamoyl]methyl acetate] gave a melting point of 151 to 153 °C.
The molecule `COc1nc(N)c(C#N)c(-c2c[nH]c3ccccc23)c1C#N` [Example 170] registered a melting point above 300 °C.
In the case of `COc1nc(F)c(C#N)c(-c2ccccc2)c1C#N` [Example 43, 2-fluoro-6-methoxy-4-phenylpyridine-3,5-dicarbonitrile] it was 156 to 158 °C.
Molecule `N#Cc1c(N)nc(OCc2ccccc2)c(C#N)c1-c1cccs1` [Example 378] came in with a melting point of 186 to 187 °C.
Regarding `N#Cc1c(N)nc(N)c(C#N)c1-c1ccccc1` [Example 41, 2,6-diamino-4-phenylpyridine-3,5-dicarbonitrile], the melting point is above 300 °C.
Consider `N#Cc1c(N)nc(SCc2ccccc2)c(C#N)c1Cc1ccccc1` [Example 437], for which the melting point fell in the range of 188 to 189 °C.
In turn, `N#Cc1c(N)nc(OCc2cccnc2)c(C#N)c1-c1ccccc1` (as salt: HCl) (hydrate or solvate) [Example 208, 2-amino-4-phenyl-6-(pyridin-3-ylmethoxy)pyridine-3,5-dicarbonitrile] returned a melting point of 174 to 175 °C.
As to `COc1nc(N)c(C#N)c(-c2ccc(CN)cc2)c1C#N.Cl`, the melting point is above 300 °C.
In the case of `N#Cc1c(N)nc(-n2ccnc2)c(C#N)c1-c1ccccc1` [Example 211] it was 256 to 258 °C.
`COc1nc(NC(=O)c2cccs2)c(C#N)c(-c2ccccc2F)c1C#N` [Example 414, N-[3,5-dicyano-4-(2-fluorophenyl)-6-methoxypyridin-2-yl]thiophene-2-carboxamide] had a melting point of 208 to 209 °C.
Take `CSc1nc(N)c(C#N)c(-c2cccc(N)c2)c1C#N.Cl`: the melting point lay within 277 to 278 °C.
The molecule `COc1nc(N)c(C#N)c(-c2cccc(C#N)c2)c1C#N` [Example 49, 2-amino-4-(3-cyanophenyl)-6-methoxypyridine-3,5-dicarbonitrile] showed a melting point of 298 to 299 °C.
On to `COc1nc(O)c(C#N)c(-c2ccccc2)c1C#N` [Example 25, 2-hydroxy-6-methoxy-4-phenylpyridine-3,5-dicarbonitrile], for which the melting point was 255 to 257 °C (dec.).
On to `N#Cc1c(N)nc(Oc2cccc(C(=O)O)c2)c(C#N)c1-c1ccccc1` [Example 31, 3-[(6-amino-3,5-dicyano-4-phenylpyridin-2-yl)oxy]benzoic acid], for which the melting point is 284 to 286 °C.
Turning to `N#Cc1c(N)nc(Oc2ccccc2)c(C#N)c1-c1ccccc1` [Example 194], the melting point amounted to 202 °C.
As to `COc1nc(N(C(C)=O)C(C)=O)c(C#N)c(-c2ccccc2F)c1C#N` [Example 59, 2-diacetylamino-4-(2-fluorophenyl)-6-methoxypyridine-3,5-dicarbonitrile], the melting point was 137 to 138 °C.
Regarding `COc1nc(N)c(C#N)c(-c2cccc(CO)c2)c1C#N` [Example 34, 2-amino-4-[3-(hydroxymethyl)phenyl]-6-methoxypyridine-3,5-dicarbonitrile], the melting point is 218.5 to 219.5 °C.
Regarding `COc1nc(NC(=O)COc2ccccc2)c(C#N)c(-c2ccccc2F)c1C#N` [Example 398, N-[3,5-dicyano-4-(2-fluorophenyl)-6-methoxypyridin-2-yl]-2-phenoxyacetamide], the melting point was 205 to 206 °C.
With `CCC(=O)Nc1nc(OC)c(C#N)c(-c2ccccc2F)c1C#N` [Example 401, N-[3,5-dicyano-4-(2-fluorophenyl)-6-methoxypyridin-2-yl]propionamide] the figure was 168 to 169 °C; with `COc1nc(N)c(C#N)c(-c2ccccc2)c1C#N` [Example 2], 251 to 252 °C; with `CCN(CC)CCOc1ccc(-c2c(C#N)c(N)nc(OC)c2C#N)cc1.Cl` (hydrate or solvate), 132 to 133 °C.
With `COc1nc(OC)c(C#N)c(-c2ccccc2)c1C#N` [Example 358] the figure was 157 to 159 °C; with `COc1nc(N)c(C#N)c(-c2ccc3cccnc3c2)c1C#N` (as salt: HCl) [Example 172, 2-amino-6-methoxy-4-quinolin-7-ylpyridine-3,5-dicarbonitrile], 245 to 254 °C (dec.); with `N#Cc1c(N)nc(Br)c(C#N)c1-c1cccs1` [Example 373], 312 °C.
For the molecule `CCC(=O)N(C(=O)CC)c1nc(OC)c(C#N)c(-c2ccccc2F)c1C#N` [Example 73, 2-dipropanoylamino-4-(2-fluorophenyl)-6-methoxypyridine-3,5-dicarbonitrile], the melting point lay within 160 to 161 °C.
In the case of `COc1nc(N)c(C#N)c(-c2ccnc(N)n2)c1C#N` (as salt: HCl) (hydrate or solvate) [Example 174], the melting point is 80 °C (dec.).
The molecule `N#Cc1c(N)nc(O)c(C#N)c1Cc1ccccc1` [Example 434] had a melting point of 314 to 315 °C.
`Cl.Cl.N#Cc1c(NCCN)nc(NCCN)c(C#N)c1-c1ccccc1` returned a melting point above 280 °C.
